# From patent US20020052295A1, “Diacyl derivatives of propylene diamine having herbicidal activity” (priority 1999, published 2002)
# Columns and labels:
# AMARE [1] = experiment: Post-emergence herbicidal activity on AMARE (redroot pigweed); format: in vivo, Amaranthus retroflexus; settings: post-emergence spray; lowest tested rate with 80% or greater inhibition; about 14 days after treatment
# Source text: (§1) All such uses, and the biological activity enabling such uses, are embraced by the term “herbicidal” herein. Tables 15 and 16 summarize results of tests conducted as described below to determine the pre-emergence herbicidal activity, in the form of a GR80 value, of illustrative compounds of this invention. […] Where herbicidal activity was evident but 80% inhibition was not achieved at the highest rate tested (typically 1000 g/ha), an asterisk (*) is shown in the following tables. Herbicidal activity evident in the form of symptoms of phytotoxicity, in the absence of at least 80% inhibition at any rate, is indicated in the tables by “phyto”. A blank cell in the following tables indicates no herbicidal or phytotoxic response at any rate tested.
# (§2) In another set of tests, the post-emergence activity of compounds of this invention was evaluated on the cool season species listed above. The following procedure was used.
# (§3) A pre-prepared topsoil mixture (described above) was placed in a pot and compacted to a depth of 1.0 to 1.25 cm from the top of the pot. Seeds of each of several monocotyledonous and dicotyledonous annual plant species were placed on top of the soil The seeds were covered with a mixture of 50% topsoil and 50% Rediearth™ in sufficient quantity to level-fill the pots. The pots were then placed on a greenhouse bench and subirrigated as needed until plants growing from the seeds had emerged and reached a suitable growth stage for post-emergence treatment, typically 9 to 14 days after planting.
# (§4) A known amount of each test compound dissolved or suspended in an appropriate organic solvent was diluted with a 50:50 mix of acetone and water and applied to the plants by spraying with a standard spray nozzle in a spray volume of 3,100 l/ha at a spray pressure of […] (30 psig). Control plants were not sprayed.
# (§5) After treatment the plants were placed in a greenhouse with a 30/21° C. day/night temperature regime and were subsequently watered as needed for growth. Approximately 14 days after treatment, the plants were observed and herbicidal efficacy recorded as percent inhibition by comparison with control plants.
# ECHCG [2] = experiment: Post-emergence herbicidal activity on ECHCG (barnyardgrass); format: in vivo, Echinochloa crus-galli; settings: post-emergence spray; lowest tested rate with 80% or greater inhibition; about 14 days after treatment
# Source text: as §1, §2, §3, §4, §5
# PANDI [3] = experiment: Post-emergence herbicidal activity on PANDI (fall panicum); format: in vivo, Panicum dichotomiflorum; settings: post-emergence spray; lowest tested rate with 80% or greater inhibition; about 14 days after treatment
# Source text: as §1, §2, §3, §4, §5
# ABUTH [4] = experiment: Post-emergence herbicidal activity on ABUTH (velvetleaf); format: in vivo, Abutilon theophrasti; settings: post-emergence spray; lowest tested rate with 80% or greater inhibition; about 14 days after treatment
# Source text: as §1, §2, §3, §4, §5
# SORVU [5] = experiment: Post-emergence herbicidal activity on SORVU (shattercane); format: in vivo, Sorghum vulgare; settings: post-emergence spray; lowest tested rate with 80% or greater inhibition; about 14 days after treatment
# Source text: as §1, §2, §3, §4, §5
# DIGSA [6] = experiment: Post-emergence herbicidal activity on DIGSA (large crabgrass); format: in vivo, Digitaria sanguinalis; settings: post-emergence spray; lowest tested rate with 80% or greater inhibition; about 14 days after treatment
# PANMI [7] = experiment: Post-emergence herbicidal activity on PANMI (wild proso millet); format: in vivo, Panicum miliaceum; settings: post-emergence spray; lowest tested rate with 80% or greater inhibition; about 14 days after treatment
# DATST [8] = experiment: Post-emergence herbicidal activity on DATST (jimsonweed); format: in vivo, Datura stramonium; settings: post-emergence spray; lowest tested rate with 80% or greater inhibition; about 14 days after treatment
# Source text: as §1, §2, §3, §4, §5
# CHEAL [9] = experiment: Post-emergence herbicidal activity on CHEAL (common lambsquarters); format: in vivo, Chenopodium album; settings: post-emergence spray; lowest tested rate with 80% or greater inhibition; about 14 days after treatment
# Source text: as §1, §2, §3, §4, §5
# CIRAR [10] = experiment: Post-emergence herbicidal activity on CIRAR (canada thistle, seedling); format: in vivo, Cirsium arvense; settings: post-emergence spray; lowest tested rate with 80% or greater inhibition; about 14 days after treatment
# Source text: as §1, §2, §3, §4, §5
# POROL [11] = experiment: Post-emergence herbicidal activity on POROL (common purslane; table head prints PORAL); format: in vivo, Portulaca oleracea; settings: post-emergence spray; lowest tested rate with 80% or greater inhibition; about 14 days after treatment
# Source text: as §1, §2, §3, §4, §5
# SOLNI [12] = experiment: Post-emergence herbicidal activity on SOLNI (black nightshade); format: in vivo, Solanum nigrum; settings: post-emergence spray; lowest tested rate with 80% or greater inhibition; about 14 days after treatment
# Source text: as §1, §2, §3, §4, §5
# BRAPP [13] = experiment: Post-emergence herbicidal activity on BRAPP (broadleaf signalgrass); format: in vivo, Brachiaria platyphylla; settings: post-emergence spray; lowest tested rate with 80% or greater inhibition; about 14 days after treatment
# Source text: as §1, §2, §3, §4, §5
# SORHA [14] = experiment: Post-emergence herbicidal activity on SORHA (johnsongrass, seedling); format: in vivo, Sorghum halepense; settings: post-emergence spray; lowest tested rate with 80% or greater inhibition; about 14 days after treatment
# Source text: as §1, §2, §3, §4, §5
# CONAR [15] = experiment: Post-emergence herbicidal activity on CONAR (field bindweed); format: in vivo, Convolvulus arvensis; settings: post-emergence spray; lowest tested rate with 80% or greater inhibition; about 14 days after treatment
# Source text: as §1, §2, §3, §4, §5
# ECHCG [16] = experiment: Pre-emergence herbicidal activity on ECHCG (barnyardgrass); format: in vivo, Echinochloa crus-galli; settings: lowest tested rate giving 80% or greater inhibition, approx. 14 days after planting and treating, greenhouse
# Outline: (§6)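 Values are GR80 (rate giving 80% inhibition), with rates up to typically 1000 g/ha. Inhibition is visually recorded against untreated pots roughly two weeks after sowing and surface treatment in a 30/21 °C day/night greenhouse.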
# ABUTH [17] = experiment: Pre-emergence herbicidal activity on ABUTH (velvetleaf); format: in vivo, Abutilon theophrasti; settings: lowest tested rate giving 80% or greater inhibition, approx. 14 days after planting and treating, greenhouse
# Outline: as §6
# CHEAL [18] = experiment: Pre-emergence herbicidal activity on CHEAL (common lambsquarters); format: in vivo, Chenopodium album; settings: lowest tested rate giving 80% or greater inhibition, approx. 14 days after planting and treating, greenhouse
# Outline: as §6
# PANMI [19] = experiment: Pre-emergence herbicidal activity on PANMI (wild proso millet); format: in vivo, Panicum miliaceum; settings: lowest tested rate giving 80% or greater inhibition, approx. 14 days after planting and treating, greenhouse
# Outline: as §6
# DATST [20] = experiment: Pre-emergence herbicidal activity on DATST (jimsonweed); format: in vivo, Datura stramonium; settings: lowest tested rate giving 80% or greater inhibition, approx. 14 days after planting and treating, greenhouse
# Outline: as §6
# SETFA [21] = experiment: Pre-emergence herbicidal activity on SETFA (giant foxtail); format: in vivo, Setaria faberi; settings: lowest tested rate giving 80% or greater inhibition, approx. 14 days after planting and treating, greenhouse
# Outline: as §6
# CONAR [22] = experiment: Pre-emergence herbicidal activity on CONAR (field bindweed); format: in vivo, Convolvulus arvensis; settings: lowest tested rate giving 80% or greater inhibition, approx. 14 days after planting and treating, greenhouse
# Outline: as §6
# PANDI [23] = experiment: Pre-emergence herbicidal activity on PANDI (fall panicum); format: in vivo, Panicum dichotomiflorum; settings: lowest tested rate giving 80% or greater inhibition, approx. 14 days after planting and treating, greenhouse
# Outline: as §6
# BRAPP [24] = experiment: Pre-emergence herbicidal activity on BRAPP (broadleaf signalgrass); format: in vivo, Brachiaria platyphylla; settings: lowest tested rate giving 80% or greater inhibition, approx. 14 days after planting and treating, greenhouse
# Outline: as §6
# POROL [25] = experiment: Pre-emergence herbicidal activity on POROL (common purslane); format: in vivo, Portulaca oleracea; settings: lowest tested rate giving 80% or greater inhibition, approx. 14 days after planting and treating, greenhouse
# Outline: as §6
# DIGSA [26] = experiment: Pre-emergence herbicidal activity on DIGSA (large crabgrass); format: in vivo, Digitaria sanguinalis; settings: lowest tested rate giving 80% or greater inhibition, approx. 14 days after planting and treating, greenhouse
# Outline: as §6
# SORVU [27] = experiment: Pre-emergence herbicidal activity on SORVU (shattercane); format: in vivo, Sorghum vulgare; settings: lowest tested rate giving 80% or greater inhibition, approx. 14 days after planting and treating, greenhouse
# Outline: as §6
# CIRAR [28] = experiment: Pre-emergence herbicidal activity on CIRAR (canada thistle, seedling); format: in vivo, Cirsium arvense; settings: lowest tested rate giving 80% or greater inhibition, approx. 14 days after planting and treating, greenhouse
# Outline: as §6
# SORHA [29] = experiment: Pre-emergence herbicidal activity on SORHA (johnsongrass, seedling); format: in vivo, Sorghum halepense; settings: lowest tested rate giving 80% or greater inhibition, approx. 14 days after planting and treating, greenhouse
# Outline: as §6
# SOLNI [30] = experiment: Pre-emergence herbicidal activity on SOLNI (black nightshade); format: in vivo, Solanum nigrum; settings: lowest tested rate giving 80% or greater inhibition, approx. 14 days after planting and treating, greenhouse
# Outline: as §6
# AMARE [31] = experiment: Pre-emergence herbicidal activity on AMARE (redroot pigweed); format: in vivo, Amaranthus retroflexus; settings: lowest tested rate giving 80% or greater inhibition, approx. 14 days after planting and treating, greenhouse
# Outline: as §6
# SETFA [32] = experiment: Post-emergence herbicidal activity on SETFA (giant foxtail); format: in vivo, Setaria faberi; settings: post-emergence spray; lowest tested rate with 80% or greater inhibition; about 14 days after treatment
# Source text: as §1, §2, §3, §4, §5
Compound,Post-emergence activity (GR80) AMARE (AMARE [1]),Post-emergence activity (GR80) ECHCG (ECHCG [2]),Post-emergence activity (GR80) PANDI (PANDI [3]),Post-emergence activity (GR80) ABUTH (ABUTH [4]),Post-emergence activity (GR80) SORVU (SORVU [5]),Post-emergence activity (GR80) DIGSA (DIGSA [6]),Post-emergence activity (GR80) PANMI (PANMI [7]),Post-emergence activity (GR80) DATST (DATST [8]),Post-emergence activity (GR80) CHEAL (CHEAL [9]),Post-emergence activity (GR80) CIRAR (CIRAR [10]),Post-emergence activity (GR80) PORAL (POROL [11]),Post-emergence activity (GR80) SOLNI (SOLNI [12]),Post-emergence activity (GR80) BRAPP (BRAPP [13]),Post-emergence activity (GR80) SORHA (SORHA [14]),Post-emergence activity (GR80) CONAR (CONAR [15]),Pre-emergence activity (GR80) on CHEAL (CHEAL [18]),Pre-emergence activity (GR80) on DATST (DATST [20]),Pre-emergence activity (GR80) on SETFA (SETFA [21]),Pre-emergence activity (GR80) on PANDI (PANDI [23]),Pre-emergence activity (GR80) on BRAPP (BRAPP [24]),also measured
"O=C(NCC(CCl)NC(=O)c1cccc(C(F)(F)F)c1)c1cccc(C(F)(F)F)c1 (centres unmarked) [Example 12, N,N′-(3-chloro-1,2-propanediylbis)-3-(trifluoromethyl)benzamide]",[empty],[empty],[empty],[empty],[empty],[empty],[empty],[empty],[empty],1000 g/ha,1000 g/ha,[empty],[empty],[empty],[empty],–,–,–,–,–,–
CC(CNC(=O)c1cccc(C(F)(F)F)c1)NC(=O)c1cccc(F)c1F (centres unmarked) [Example 34],750 g/ha,–,–,phyto,–,–,–,750 g/ha,"* (Where herbicidal activity was evident but 80% inhibition was not achieved at the highest rate tested (typically 1000 g/ha), an asterisk (*) is shown)",1000 g/ha,250 g/ha,phyto,–,–,"* (Where herbicidal activity was evident but 80% inhibition was not achieved at the highest rate tested (typically 1000 g/ha), an asterisk (*) is shown)",125 g/ha,250 g/ha,250 g/ha,125 g/ha,250 g/ha,Pre-emergence activity (GR80) on ECHCG (ECHCG [16]): 1000 g/ha; Pre-emergence activity (GR80) on ABUTH (ABUTH [17]): 500 g/ha; Pre-emergence activity (GR80) on PANMI (PANMI [19]): 250 g/ha; Pre-emergence activity (GR80) on CONAR (CONAR [22]): 750 g/ha; Pre-emergence activity (GR80) on PORAL (POROL [25]): 125 g/ha; Pre-emergence activity (GR80) on DIGSA (DIGSA [26]): 125 g/ha; Pre-emergence activity (GR80) on SORVU (SORVU [27]): phyto; Pre-emergence activity (GR80) on CIRAR (CIRAR [28]): 125 g/ha; Pre-emergence activity (GR80) on SORHA (SORHA [29]): 750 g/ha; Pre-emergence activity (GR80) on SOLNI (SOLNI [30]): 250 g/ha; Pre-emergence activity (GR80) on AMARE (AMARE [31]): 125 g/ha
C[C@H](CNC(=O)c1cccc(C(F)(F)F)c1)NC(=O)Oc1ccc(Cl)cc1 [Example 231],phyto,[empty],phyto,[empty],phyto,phyto,[empty],"* (Where herbicidal activity was evident but 80% inhibition was not achieved at the highest rate tested (typically 1000 g/ha), an asterisk (*) is shown)",phyto,[empty],phyto,[empty],[empty],phyto,phyto,phyto,phyto,phyto,phyto,phyto,Pre-emergence activity (GR80) on PORAL (POROL [25]): phyto; Pre-emergence activity (GR80) on DIGSA (DIGSA [26]): 1000 g/ha; Pre-emergence activity (GR80) on CIRAR (CIRAR [28]): phyto; Pre-emergence activity (GR80) on SOLNI (SOLNI [30]): phyto; Post-emergence activity (GR80) SETFA (SETFA [32]): [empty]; Pre-emergence activity (GR80) on AMARE (AMARE [31]): 750 g/ha
